Data from patent publication US7951232B2, “Surface coating compositions and methods” (Elevance Renewable Sciences, Inc., priority 2006, dated 2011).

How the values were obtained:
Type in all cases: cell-based
[1] = system: Escherichia coli, ATCC 11229; test: Time-Kill Procedure (ASTM) at pH 7
Protocol: (§1) The rate of kill for these organisms upon exposure to 9-decenoic acid was determined using the American Society for Testing and Materials (ASTM) procedure entitled “Standard Test Method for the Assessment of Microbiocidal Activity of Test Materials Using a Time-Kill Procedure”, October 1998. This procedure incorporates the recommendations described in the “Manual of Clinical Microbiology,”5th ed., edited by A. B. Balows et al., ASM, Washington, and is directed by the Federal Register, June 1994.
(§2) Stock cultures were transferred into TSB and incubated for 18-24 hours at 37±2° C. A second transfer was made onto TSA plates and were incubated for 18-24 hours at 37±2° C. The plates were removed from incubation and the bacterial growth washed from the agar surface using Butterfield's Phosphate Buffered Dilution Water (PBDW). The bacterial suspension was adjusted to contain approximately 10^8 Colony Forming Units (CFU)/ml with PBDW using spectrophometric methods extant in the laboratory.
(§3) The concentrated 9-decenoic acid was diluted 1:40 in filter sterilized isopropanol to yield a 2.5% stock solution. Subsequent dilutions to the 9-decenoic acid stock solutions were made with sterile Deionized Water (DI) to achieve concentrations of 0.1%, 0.05%, 0.01%, and 0.001%. The pH was determined for each dilution; pH values ranged from 4.4-4.1. Additionally, the 9-decenoic acid stock solution was adjusted to pH 7 with 1 N NaOH and serially diluted with sterile DI to achieve concentrations of 1.0%, 0.75% and 0.5%.
(§4) Compliant with the ASTM procedure cited, for each challenge microorganism a 9.9 ml aliquot of the prepared 9-decenoic acid suspension was added to a sterile tube. A 0.1 ml aliquot of the standardized inoculum was added to the 9-decenoic acid solution representing the start of the test exposure. The inoculated 9-decenoic acid solution was immediately mixed thoroughly. The inoculated suspension was held at room temperature for 0.5, 2, 5, 7 and 10 minute exposure times for tests run at ˜pH 4. The pH 7 tests were held at room temperature for 0.5 and 2 minutes.
(§5) At each exposure sample time, a 1.0 ml aliquot of the inoculated 9-decenoic acid suspension was transferred to 9.0 ml of D/E Neutralizing Broth. Additional ten-fold serial dilutions were made in PBDW and plated in duplicate on TSA. All plates were incubated for 48 hours at 37±2° C. and visually examined for growth. The plates are enumerated, recorded and log kill determined for each time point.
(§6) The following study controls were conducted: culture purity, neutralizer sterility, initial suspension population, test population, neutralization verification and a negative control using isopropanol. Culture purity was verified by performing a streak plate for isolated colonies on the each culture used. All cultures were determined to be pure based on consistent colony morphology typical for the test organism. The neutralizer sterility was confirmed by no growth in an incubated sample.
(§7) The population of the initial and test culture were determined by serial dilution, plating and enumerating after incubation. The initial suspension were determined to be ≧10^4 CFU/ml. The test culture population was used for calculation of the log reduction achieved at each time point.
(§8) Neutralization effectiveness was verified by a filtration test. For each organism, four tubes were prepared with 9 ml D/E Neutralizing Broth and fewer than 100 CFU/ml of the organism. A 1.0 ml aliquot of prepared 9-decenoic acid was added to each tube. Immediately, the entire contents of 2 tubes were filtered through a filtration apparatus and rinsed with sterile diluent. The remaining 2 tubes were held at room temperature for 30 minutes and then the entire contents were filtered using the same procedure. The filters were aseptically transferred to TSA plates and incubated for 48 hours at 37±2° C. and visually examined for growth.
(§9) This control was inoculated, subcultured and incubated as in the test procedure.

[2] = system: Pseudomonas aeruginosa ATCC 15442; test: MIC and MBC determination in Mueller-Hinton Broth; conditions: no-growth tubes subcultured on TSA, 37±2° C., 20-24 hours
Protocol: Efficacy of 9-decenoic acid and the methyl ester of 9-decenoic acid against Pseudomonas aeruginosa ATCC 15442, Escherichia coli 0157:H7 ATCC 43895 and Candida albicans ATCC 10231 was measured through the determination of the minimum inhibitory concentration (MIC) and minimum bacteriocidal concentration (MBC) using the procedures in the Federal Register, June 1994 and the present NCCLS M11-A4 protocol.
Stock cultures of each organism were transferred onto Mueller-Hinton Agar (MHA) plates and incubated for 24±2 hours at 37±2° C. On the day of the test, the top of at least three to five well-isolated colonies were transferred via wire loop to a tube containing 4 to 5 ml of Trypticase Soy Broth (TSB). The TSB culture was incubated for 2 to 6 hours and turbidity was adjusted with sterile saline to achieve the turbidity of the 0.5 McFarland Standard.
The concentrated 9-decenoic acid was diluted 1:40 in Mueller-Hinton Broth (MHB) to yield a 2.5% stock solution. The test solution of the methyl ester of 9-decenoic acid was formulated in the same manner. For each organism, 12 dilutions of the 9-decenoic acid and the methyl ester of 9-decenoic acid in MHB were prepared ranging from 0.2500 to 0.0005%. A 2-ml aliquot of appropriately diluted 9-decenoic acid or the methyl ester of 9-decenoic acid solution was placed in each tube. Each tube was inoculated with 0.05 ml of a 1:10 dilution of one challenge organism. Tubes were incubated at 37±2° C. for 20-24 hours and observed for growth or no growth. […] Controls were run for sterility, viability and organism confirmation. It was determined that all cultures were viable and pure.
The MBC was defined as the concentration of 9-decenoic acid or the methyl ester of 9-decenoic acid that completely eradicated viable organisms from the test system.

[3] = system: Candida albicans, ATCC 10231; test: Time-Kill Procedure (ASTM), rate of kill
Protocol: as §1, §2, §3, §4, §5, §6, §7, §8, §9

[4] = system: Escherichia coli 0157:H7, ATCC 43895; test: Time-Kill Procedure (ASTM), rate of kill
Protocol: as §1, §2, §3, §4, §5, §6, §7, §8, §9

[5] = 0.01%, pH 4.4, exposure 0.5 minutes
[6] = 0.01%, pH 4.4, exposure 2 minutes
[7] = 0.01%, pH 4.4, exposure 5 minutes
[8] = 0.01%, pH 4.4, exposure 7 minutes
[9] = 0.01%, pH 4.4, exposure 10 minutes
[10] = 0.05%, pH 4.1, exposure 0.5 minutes
[11] = 0.05%, pH 4.1, exposure 2 minutes
[12] = 0.05%, pH 4.1, exposure 5 minutes
[13] = 0.05%, pH 4.1, exposure 7 minutes
[14] = 0.05%, pH 4.1, exposure 10 minutes
[15] = 0.1%, pH 4.1, exposure 0.5 minutes
[16] = 0.1%, pH 4.1, exposure 2 minutes
[17] = 0.1%, pH 4.1, exposure 5 minutes
[18] = 0.1%, pH 4.1, exposure 7 minutes
[19] = 0.1%, pH 4.1, exposure 10 minutes

Compound: C=CCCCCCCCC(=O)O [9-decenoic acid]
- Log reduction after exposure at pH 7 ([1]; 0.5%, pH 7, exposure 0.5 minutes): 0 log
- Log reduction after exposure at pH 7 ([1]; 0.5%, pH 7, exposure 2 minutes): 0 log
- Log reduction after exposure at pH 7 ([1]; 0.75%, pH 7, exposure 0.5 minutes): 0.83 log
- Log reduction after exposure at pH 7 ([1]; 0.75%, pH 7, exposure 2 minutes): >4.2 log
- Log reduction after exposure at pH 7 ([1]; 1.0%, pH 7, exposure 0.5 minutes): >4.2 log
- Log reduction after exposure at pH 7 ([1]; 1.0%, pH 7, exposure 2 minutes): >4.2 log
- MBC [2]: 0.1250%
- Log reduction of organisms after exposure [3, 5]: 1.0 log
- Log reduction of organisms after exposure [3, 6]: 2.9 log
- Log reduction of organisms after exposure [3, 7]: >6.7 log
- Log reduction of organisms after exposure [3, 8]: >6.7 log
- Log reduction of organisms after exposure [3, 9]: >6.7 log
- Log reduction of organisms after exposure [3, 10]: >6.7 log
- Log reduction of organisms after exposure [3, 11]: >6.7 log
- Log reduction of organisms after exposure [3, 12]: >6.7 log
- Log reduction of organisms after exposure [3, 13]: >6.7 log
- Log reduction of organisms after exposure [3, 14]: >6.7 log
- Log reduction of organisms after exposure [3, 15]: >6.7 log
- Log reduction of organisms after exposure [3, 16]: >6.7 log
- Log reduction of organisms after exposure [3, 17]: >6.7 log
- Log reduction of organisms after exposure [3, 18]: >6.7 log
- Log reduction of organisms after exposure [3, 19]: >6.7 log
- Log reduction of organisms after exposure [4, 5]: 1.3 log
- Log reduction of organisms after exposure [4, 6]: 1.6 log
- Log reduction of organisms after exposure [4, 7]: 2.2 log
- Log reduction of organisms after exposure [4, 8]: 1.8 log
- Log reduction of organisms after exposure [4, 9]: 2.7 log
- Log reduction of organisms after exposure [4, 10]: >6.2 log
- Log reduction of organisms after exposure [4, 11]: >6.2 log
- Log reduction of organisms after exposure [4, 12]: >6.2 log
- Log reduction of organisms after exposure [4, 13]: >6.2 log
- Log reduction of organisms after exposure [4, 14]: >6.2 log
- Log reduction of organisms after exposure [4, 15]: >6.2 log
- Log reduction of organisms after exposure [4, 16]: >6.2 log
- Log reduction of organisms after exposure [4, 17]: >6.2 log
- Log reduction of organisms after exposure [4, 18]: >6.2 log
- Log reduction of organisms after exposure [4, 19]: >6.2 log
